PMC8537327, “EGFR-Targeted Pentacyclic Triterpene Analogues for Glioma Therapy” (International Journal of Molecular Sciences, 2021)

Tests used:
HER2 = target: T1, HER2 (Homo sapiens, UniProt P04626); test: Kinase profiling assay (ADP-Glo), HER2; format: biochemical; details: 30 µM concentration
T1 construct: purchased Promega Corporation
Experimental: (§1) The kinase profiling assay protocol (TK1 and TK-2) was applied according to the manufacturer‘s instructions (Promega Corporation, Madison, WI, USA) with few modifications. In regard to this protocol, the EGFR, HER2, HER4, IGF1R, InsR, KDR, PDGFR-α, PDGFR-β, ABL1, BRK, BTK, CSK, FYN A, LCK, LYN B, and SRC kinase stocks in the kinase strips were diluted with 95 µL 2.5x kinase buffer and their substrate stock in the substrate strip was diluted with 15 µL of 100 µM ATP solutions. Then, the kinase reactions were performed using 2 µL of the kinase working stocks, 2 µL of the ATP/substrate working stocks, and 1 µL of compound solution (0.1–100 µM) or 5% DMSO solution in the 384-well plate. After 4 h of incubation at room temperature, the activity of kinases was detected using ADP-Glo Kinase Assay (Promega Corporation, Madison, WI, USA) according to the manufacturer‘s protocol. Briefly, 5 µL of ADP-Glo reagent was added into each well of 384-well plate and the mixture was incubated at room temperature for 40 min to stop the kinase reaction and deplete any ATP remaining. Then, 10 µL Kinase Detection Reagent was added and the mixture was incubated for a further 30 min to convert the kinase-produced ADP to ATP, and then to light. […]

ABL1 = target: T2, ABL1 (Homo sapiens, UniProt P00519); test: Kinase profiling assay (ADP-Glo), ABL1; format: biochemical; details: 30 µM concentration
T2 construct: purchased Promega Corporation
T2 sequence (P00519 whole entry): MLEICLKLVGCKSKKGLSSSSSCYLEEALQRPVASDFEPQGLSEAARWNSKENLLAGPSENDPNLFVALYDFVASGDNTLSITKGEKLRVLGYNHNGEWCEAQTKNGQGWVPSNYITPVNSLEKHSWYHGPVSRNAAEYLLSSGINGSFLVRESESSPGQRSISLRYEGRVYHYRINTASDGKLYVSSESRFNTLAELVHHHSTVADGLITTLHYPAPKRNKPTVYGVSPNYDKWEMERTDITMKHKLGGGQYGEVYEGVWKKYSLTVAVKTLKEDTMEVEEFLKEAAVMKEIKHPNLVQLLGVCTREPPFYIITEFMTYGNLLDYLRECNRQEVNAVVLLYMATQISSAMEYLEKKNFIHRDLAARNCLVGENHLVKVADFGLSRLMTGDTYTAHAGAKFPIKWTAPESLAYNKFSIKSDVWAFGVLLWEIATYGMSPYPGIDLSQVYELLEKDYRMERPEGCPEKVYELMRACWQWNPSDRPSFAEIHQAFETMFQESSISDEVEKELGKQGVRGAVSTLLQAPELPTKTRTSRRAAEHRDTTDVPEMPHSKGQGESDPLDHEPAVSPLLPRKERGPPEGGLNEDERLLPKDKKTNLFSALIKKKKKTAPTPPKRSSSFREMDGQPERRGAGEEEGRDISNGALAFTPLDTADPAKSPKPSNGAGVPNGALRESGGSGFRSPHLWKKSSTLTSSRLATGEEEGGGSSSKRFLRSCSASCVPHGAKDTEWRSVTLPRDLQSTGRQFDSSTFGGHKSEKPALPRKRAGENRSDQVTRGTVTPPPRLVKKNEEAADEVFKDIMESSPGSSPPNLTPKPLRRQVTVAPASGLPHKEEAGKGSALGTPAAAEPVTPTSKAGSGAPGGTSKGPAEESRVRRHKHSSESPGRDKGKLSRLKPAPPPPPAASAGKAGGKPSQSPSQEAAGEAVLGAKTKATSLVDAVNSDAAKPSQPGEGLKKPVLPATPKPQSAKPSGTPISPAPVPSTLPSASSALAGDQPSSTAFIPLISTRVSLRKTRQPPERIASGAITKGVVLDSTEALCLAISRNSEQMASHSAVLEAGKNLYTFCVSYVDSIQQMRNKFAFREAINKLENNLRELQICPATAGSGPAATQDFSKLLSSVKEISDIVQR
Experimental: as §1

FYN A = target: T3, FYN A (Homo sapiens, UniProt P06241); test: Kinase profiling assay (ADP-Glo), FYN A; format: biochemical; details: 30 µM concentration
T3 construct: purchased Promega Corporation
T3 sequence (P06241 whole entry): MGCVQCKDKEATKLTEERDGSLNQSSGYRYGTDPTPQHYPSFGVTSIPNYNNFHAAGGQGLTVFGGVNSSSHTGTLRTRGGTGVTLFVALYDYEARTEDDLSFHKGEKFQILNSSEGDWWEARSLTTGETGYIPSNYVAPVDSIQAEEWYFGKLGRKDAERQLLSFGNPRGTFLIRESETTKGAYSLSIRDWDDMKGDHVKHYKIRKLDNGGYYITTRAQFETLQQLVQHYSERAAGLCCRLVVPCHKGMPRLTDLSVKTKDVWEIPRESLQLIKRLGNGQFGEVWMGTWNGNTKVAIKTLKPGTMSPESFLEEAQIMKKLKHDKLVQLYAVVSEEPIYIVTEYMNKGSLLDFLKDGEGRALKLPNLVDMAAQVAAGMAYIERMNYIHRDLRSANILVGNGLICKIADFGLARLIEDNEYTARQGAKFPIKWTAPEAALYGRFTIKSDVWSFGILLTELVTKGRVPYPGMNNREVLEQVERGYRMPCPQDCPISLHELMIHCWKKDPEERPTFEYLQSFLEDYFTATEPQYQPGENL
Experimental: as §1

[1] = test system: U251 human glioblastoma cells; test: MTT cytotoxicity assay, U251 cells; format: cell-based; details: for IC50: MTT, 72 h; for anticancer activity against U251 cells: at 100 µM concentration
Experimental: (§2) U251, T98G (Japanese Collection of Research Bioresources Cell Bank), and U87 human glioblastoma cell lines were incubated in Dulbecco’s Modified Eagle Medium (DMEM)/Ham’s F12 (Wako Pure Chemical Industries, Osaka, Japan), Eagle’s Minimum Essential Medium (EMEM; Wako Pure Chemical Industries, Osaka, Japan), and DMEM (Gibco/Thermo Fisher Scientific, Waltham, MA, USA) respectively, and supplemented with 10% fetal bovine serum (FBS; Sigma Aldrich, MO, USA). Jurkat human leukemic T-cell line was cultured in Roswell Park Memorial Institute (RPMI) 1640 (Wako Pure Chemical Industries, Osaka, Japan), supplemented with 10% FBS. PBMCs (Precision Bioservices, Frederick, MD, USA) were incubated in RPMI 1640 and supplemented with 10% human serum AB (HS) (Gemini, Woodland, CA, USA). All media were supplemented with 89 μg/mL streptomycin (Meiji Seika Pharma, Tokyo, Japan) at 37 °C in a humid atmosphere and 5% CO2. For each experiment, growing cells were plated at 4 × 10^4 cells/mL and 6 × 10^5 cells/mL into 24-well and 96-well microtiter tissue culture plates (Iwaki brand Asahi Glass Co., Chiba, Japan) respectively and incubated for 72 h before the addition of the drugs (the optimal cell number for cytotoxicity assays was determined in preliminary experiments). The stock solutions of the compounds and cisplatin (Sigma-Aldrich, St. Louis, MO, USA) in concentrations between 0.1–10 mM were prepared in dimethyl sulfoxide (DMSO; Wako Pure Chemical Industries, Osaka, Japan) and in H2O respectively, then were added to fresh culture medium. The concentration of DMSO and H2O in the final culture medium was 1% which had no effect on the cell viability.
(§3) The MTT (Dojindo Molecular Technologies, Kumamoto, Japan) assay was carried out using the U251, T98G, U87, Jurkat, and PBMC cells to determine the cytotoxicity of compounds 1–13 and cisplatin as previously described in the literature with small modifications. Treated cells were incubated with different concentrations (1–100 µM) of the compounds for 72 h at 37 °C in the CO2 incubator. About 100 µL (1.1 mg/mL) of MTT solution was added to each well and after further incubation for 4 h, formazan crystals formed. At the end of this period, the medium was removed and the formazan crystals were solubilized by the addition of 100 μL DMSO to each well. The absorbance was read on an Infinite M1000 plate reader (Tecan, Mannedorf, Switzerland) at a wavelength of 550 nm with background subtraction at 630 nm. All experiments were performed in triplicate and IC50 values were defined as the drug concentrations that reduced absorbance to 50% of control values.

[2] = test system: U87 human glioblastoma cells; test: MTT cytotoxicity assay, U87 cells; format: cell-based; details: for IC50: MTT, 72 h; for anticancer activity against U87 cells: at 100 µM concentration
Experimental: as §2, §3

[3] = test system: T98G human glioblastoma cells; test: MTT cytotoxicity assay, T98G cells; format: cell-based; details: for IC50: MTT, 72 h; for anticancer activity against T98G cells: at 100 µM concentration
Experimental: as §2, §3

[4] = test system: Jurkat human leukemic T-cells; test: MTT cytotoxicity assay, Jurkat cells; format: cell-based; details: for IC50: MTT, 72 h; for SI (selectivity index): SI = IC50 for PBMCs/IC50 for Jurkat cells
Experimental: as §2, §3

[5] = test system: human peripheral blood mononuclear cells (PBMCs); test: MTT cytotoxicity assay, PBMCs; format: cell-based; details: 72 h
Experimental: as §2, §3

U251 cells = test: Annexin V/ethidium homodimer III staining, apoptotic/necrotic cell detection; format: cell-based, human; details: 24 h; IC50 concentration (Figure 4 legend), 5 μM (method)
Experimental: U251 cells (4 × 10^4 cells/well) were seeded in each well of a 24-well plate with compound 10 and cisplatin at 5 μM concentration for 24 h. Then, the apoptotic/necrotic/healthy cells detection kit protocol was applied according to the manufacturer’s instructions (PromoKine, Heidelberg, Germany) with few modifications. Briefly, the cells were washed twice with 1 × binding buffer and then treated with FITC-Annexin V (5 μL), ethidium homodimer III (5 μL), and Hoechst 33342 (5 μL) for 20 min at room temperature in a protected-light environment. After washing in 1 × binding buffer, cells were analyzed under an all-in-one fluorescence microscope Biorevo Fluorescence BZ-9000 (Keyence, Osaka, Japan). Healthy cells, apoptotic cells, late apoptotic or necrotic cells, and necrotic cells were counted as previously described.

K562 CML cell line = test system: K562 CML cell line; design: method as in PMID 31574910; details: previously reported by the authors; read-out: IC50, cytotoxic activity against K562 CML cell line; cited from earlier work

T1 sequence (P04626 23-1255): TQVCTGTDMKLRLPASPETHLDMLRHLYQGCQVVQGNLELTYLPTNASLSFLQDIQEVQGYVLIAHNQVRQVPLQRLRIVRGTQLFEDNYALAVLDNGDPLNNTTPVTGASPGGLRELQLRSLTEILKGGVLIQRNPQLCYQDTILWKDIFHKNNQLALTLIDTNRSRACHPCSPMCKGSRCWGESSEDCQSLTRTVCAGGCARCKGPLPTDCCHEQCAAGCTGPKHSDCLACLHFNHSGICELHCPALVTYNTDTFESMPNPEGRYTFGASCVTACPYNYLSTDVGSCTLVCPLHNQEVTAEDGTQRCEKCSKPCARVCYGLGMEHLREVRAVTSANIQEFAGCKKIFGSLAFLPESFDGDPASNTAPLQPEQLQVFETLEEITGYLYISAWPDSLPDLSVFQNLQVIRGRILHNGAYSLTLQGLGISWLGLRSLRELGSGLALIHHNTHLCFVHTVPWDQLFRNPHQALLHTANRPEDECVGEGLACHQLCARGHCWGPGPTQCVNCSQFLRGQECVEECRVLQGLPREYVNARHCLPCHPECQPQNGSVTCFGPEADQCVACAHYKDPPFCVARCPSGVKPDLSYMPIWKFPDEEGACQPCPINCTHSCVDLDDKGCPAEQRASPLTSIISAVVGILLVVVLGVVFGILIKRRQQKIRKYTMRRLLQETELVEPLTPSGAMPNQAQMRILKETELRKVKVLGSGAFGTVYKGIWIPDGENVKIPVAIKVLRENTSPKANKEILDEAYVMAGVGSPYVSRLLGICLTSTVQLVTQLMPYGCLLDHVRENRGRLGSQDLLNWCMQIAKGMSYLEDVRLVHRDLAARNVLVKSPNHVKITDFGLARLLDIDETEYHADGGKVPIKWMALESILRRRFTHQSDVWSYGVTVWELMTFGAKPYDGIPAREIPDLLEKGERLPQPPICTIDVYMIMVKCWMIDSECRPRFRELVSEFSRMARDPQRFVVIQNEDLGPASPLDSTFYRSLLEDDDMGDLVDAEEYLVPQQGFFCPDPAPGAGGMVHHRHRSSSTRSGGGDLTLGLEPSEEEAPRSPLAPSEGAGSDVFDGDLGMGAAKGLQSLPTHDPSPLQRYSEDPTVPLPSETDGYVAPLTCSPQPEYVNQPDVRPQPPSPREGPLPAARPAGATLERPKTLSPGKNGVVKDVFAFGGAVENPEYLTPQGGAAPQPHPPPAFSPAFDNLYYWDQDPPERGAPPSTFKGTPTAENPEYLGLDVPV

Row | Structure (SMILES) | IC50 ([1]; Homo sapiens, U-251) [µM] | IC50 ([2]; Homo sapiens, U-87 MG) [µM] | IC50 ([3]; Homo sapiens, T98G) [µM] | also measured
1 | C#Cc1cccc(Nc2ncnc3cc(OCCOC)c(OCCOC)cc23)c1 [erlotinib, reference compound] | – | – | – | HER2 inhibition (HER2): moderate; ABL1 inhibition (ABL1): moderate; FYN A inhibition (FYN A): moderate
2 | CC1(C)CC[C@]2(C(=O)OCc3ccccc3)CC[C@]3(C)C(=CC[C@@H]4[C@@]5(C)CC[C@H](O)[C@@](C)(CO)[C@@H]5CC[C@]43C)[C@@H]2C1 [Compound 4] | 8.06 ± 2.04 | 19.5 ± 4.52 | 9.86 ± 2.21 | IC50 ([4]; Homo sapiens, Jurkat): 9.97 ± 3.24 µM; SI (selectivity index) [4]: 2.20; IC50 ([5]; Homo sapiens, PBMC): 21.9 ± 5.13 µM
3 | N.N.[Cl][Pt][Cl] [Cisplatin, cisplatin, reference compound] | – | – | – | IC50 [1]: 7.7 ± 2.81 µM; IC50 [2]: 20.9 ± 5.16 µM; IC50 [3]: 16.9 ± 3.95 µM; IC50 [4]: 4.87 ± 2 µM; SI (selectivity index) [4]: 7.12; apoptosis in U251 cells (U251 cells): 13.83%; IC50 [5]: 34.7 ± 7.11 µM
4 | C[C@H]1[C@H](C)CC[C@]2(C(=O)OCc3ccccc3)CC[C@]3(C)C(=CC[C@@H]4[C@@]5(C)CC[C@H](O)C(C)(C)[C@@H]5CC[C@]43C)[C@H]12 [Compound 6] | 16.7 ± 3.17 | 79.7 ± 10.1 | 64.1 ± 7.36 | –
5 | C[C@H]1[C@H](C)CC[C@]2(C(=O)OCc3ccccc3)CC[C@]3(C)C(=CC[C@@H]4[C@@]5(C)C[C@@H](O)[C@H](O)[C@@](C)(CO)[C@@H]5CC[C@]43C)[C@H]12 [Compound 1] | 13.2 ± 3.19 | 22.6 ± 6.75 | 20.5 ± 4.34 | –
6 | C[C@H](NCC1(C)C(O)CCC2(C)C1CCC1(C)C2CC=C2C3CC(C)(C)CCC3(C(=O)O)CCC21C)c1ccccc1 (stereo partly drawn) [Compound 12, 10-Hydroxy-2,2,6a,6b,9,12a-hexamethyl-9-[(((S)-1-phenylethyl)amino)methyl]-1,2,3,4,4a,5,6,6a,6b,7,8,8a,9,10,11,12,12a,12b,13,14b-icosahydropicene-4a-carboxylic acid] | > 100 | > 100 | > 100 | melting point: 240 to 243 °C; anticancer activity against U251 cells [1]: no significant anticancer activity; anticancer activity against U87 cells [2]: no significant anticancer activity; anticancer activity against T98G cells [3]: no significant anticancer activity
7 | CC(=O)Nc1cccc(NCC2(C)C(O)CCC3(C)C2CCC2(C)C3CC=C3C4CC(C)(C)CCC4(C(=O)O)CCC32C)c1 (centres unmarked) [Compound 13, 9-[((3-Acetamidophenyl)amino)methyl]-10-hydroxy-2,2,6a,6b,9,12a-hexamethyl-1,2,3,4,4a,5,6,6a,6b,7,8,8a,9,10,11,12,12a,12b,13,14b-icosahydropicene-4a-carboxylic acid] | 9.95 ± 2.04 | 21.7 ± 6.09 | 20.2 ± 5.47 | melting point: 265 to 267 °C; IC50 ([4]; Homo sapiens, Jurkat): 12.1 ± 1.64 µM; SI (selectivity index) [4]: 3.57; IC50 ([5]; Homo sapiens, PBMC): 43.1 ± 8.32 µM
8 | C=C(C)[C@@H]1CC[C@]2(C(=O)OCc3ccccc3)CC[C@]3(C)[C@H](CC[C@@H]4[C@@]5(C)CC[C@H](O)C(C)(C)[C@@H]5CC[C@]43C)[C@@H]12 [Compound 2] | 24 ± 4.98 | > 100 | > 100 | –
9 | CC1(C)CC[C@]2(C(=O)OCc3ccccc3)CC[C@]3(C)C(=CC[C@@H]4[C@@]5(C)CC[C@H](O)[C@@](C)(C=O)[C@@H]5CC[C@]43C)[C@@H]2C1 [Compound 7] | 18 ± 2.23 | 60.9 ± 8.87 | 61.1 ± 5.13 | –
10 | CC1(C)[C@@H](O)CC[C@]2(C)[C@H]3C(=O)C=C4[C@@H]5C[C@@](C)(C(=O)OCc6ccccc6)CC[C@]5(C)CC[C@@]4(C)[C@]3(C)CC[C@@H]12 [Compound 3] | > 100 | > 100 | > 100 | anticancer activity against U251 cells [1]: no significant anticancer activity; anticancer activity against U87 cells [2]: no significant anticancer activity; anticancer activity against T98G cells [3]: no significant anticancer activity
11 | CC1(C)CC[C@]2(C(=O)OCc3ccc(C#N)cc3)CC[C@]3(C)C(=CC[C@@H]4[C@@]5(C)CC[C@H](O)[C@@](C)(C=O)[C@@H]5CC[C@]43C)[C@@H]2C1 [Compound 9] | 14.1 ± 3.41 | > 100 | 56.6 ± 6.08 | IC50 (K562 CML cell line): 3.19 µM
12 | CC1(C)CCC2(C(=O)O)CCC3(C)C(=CCC4C5(C)CCC(O)C(C)(CNCc6ccccc6)C5CCC43C)C2C1 (centres unmarked) [Compound 11, 9-((Benzylamino)methyl)-10-hydroxy-2,2,6a,6b,9,12a-hexamethyl-1,2,3,4,4a,5,6,6a,6b,7,8,8a,9,10,11,12,12a,12b,13,14b-icosahydropicene-4a-carboxylic acid] | > 100 | > 100 | > 100 | melting point: 246 to 249 °C; anticancer activity against U251 cells [1]: no significant anticancer activity; anticancer activity against U87 cells [2]: no significant anticancer activity; anticancer activity against T98G cells [3]: no significant anticancer activity
